{"source": "patent US20210221848A1", "about": "“POLYMYXIN DERIVATIVES AND THEIR USE IN COMBINATION THERAPY TOGETHER WITH DIFFERENT ANTIBIOTICS” (priority 2014, published 2021)", "key": {"[1]": {"system": "K. pneumoniae", "experiment": "MIC in the presence of a fixed concentration (2 μg/mL) of Rifampicin", "type": "cell-based, Klebsiella pneumoniae", "conditions": "Rifampicin 2 μg/mL, Table 5C"}, "[2]": {"system": "A. baumannii", "experiment": "MIC in 1:1 (wt:wt) combination with Rifampicin", "type": "cell-based, Acinetobacter baumannii", "conditions": "1:1 (wt:wt) with Rifampicin, total drug concentration", "procedure": "The inoculum was prepared by making a direct suspension of isolated colonies (selected from an 18-24 hour Mueller-Hinton agar plate) adjusted to the 0.5 McFarland standard. […] The assays were performed in duplicate. […] In cases where the duplicate values varied by less than 2-fold, the lower of the two values is reported. If a variation of greater than 2-fold was observed, the assay was considered non-valid. Several of the compounds were subjected to multiple tests, and where this is the case, the MIC reflects the modal value obtained.\nMIC values (microgram/mL) refer to the total drug concentration (i.e. test agent plus Rifampicin)."}, "[3]": {"system": "HK-2 cell line", "experiment": "In vitro renal cell toxicity assay (resazurin reduction)", "conditions": "HK-2 cell IC50 expressed relative to the value for polymyxin B", "procedure": "MICs were determined as described herein. HK-2 cell IC50 values were determined as described herein. Values are reported relative to Polymyxin B."}, "[4]": {"system": "Pseudomonas aeruginosa ATCC 27853", "type": "in vivo", "conditions": "mouse lungs, P. aeruginosa ATCC 27853, SC at 2, 6 and 10 h post-infection, 16 h infection model", "procedure": "Groups of 7 male neutropenic specific-pathogen-free CD-1 mice weighing 21.5-27.5 g were used. On Day 0, animals were infected with 0.04 mL inoculum by intranasal instillation into mouse nostrils and were kept in an upright position on a string rack for ˜10 min post-infection. […] At 2 h, the CFU count was determined from 3 mice and the remaining mice (7 per test compound groups) were treated with a subcutaneous injection of the drug at +2, 6 and 10 hr post-infection. Test compounds and the comparator polymyxin B were administered at four concentrations (2.6, 8.6, 17.2 and 25.8 mg/kg free base). The vehicle control group (7 mice) was treated with 0.9% saline for injection at 2, 6 and 10 h post-infection.\nSixteen hours after infection, the mice were euthanized humanely. The lungs of each animal were harvested, homogenized and quantitatively cultured onto CLED agar for CFU determination. Decrease of the total CFU compared to control counts at 16 h post-infection was determined for each dose group.\nThe in vivo efficacy of 4 compounds of the invention (D25, D36, D42 and D50) was evaluated in a mouse lung infection model of P. aeruginosa ATCC 27853. The model was setup as described above with the exception that groups of up to 8 mice were inoculated through intranasal instillation of ˜2.5×10^6 CFUs of P. aeruginosa isolate ATCC 27853 (1.0×10^5 CFU/lung). Test compounds were administered at two concentrations (equivalent to 4.3 and 17.2 mg/kg free base). Three dose levels of polymyxin B sulfate were used as comparator (equivalent to 4.3, 8.6 and 17.2 mg/kg free base)."}, "[5]": {"system": "K. pneumoniae"}, "[6]": {"system": "Escherichia coli ATCC 25922", "conditions": "mouse thigh, 3.4 mg/kg/dose free base IV at 1, 3.5 and 6 h post-infection, 9 h model"}}, "note": "Where two headings read alike, the source gives them in different places."}
{"substance": "Polymyxin B [PMB, reference compound]", "values": [{"measurement": "MIC in combination with Rifampicin, K. pneumoniae ATCC 4352", "setting": "[1]; K. pneumoniae ATCC 4352", "value": 0.06, "unit": "micrograms/mL"}, {"measurement": "MIC in combination with Rifampicin, K. pneumoniae ATCC BAA-2146", "setting": "[1]; K. pneumoniae ATCC BAA-2146", "value": 0.25, "unit": "micrograms/mL"}, {"measurement": "MIC in 1:1 combination with rifampicin, A. baumannii 053", "setting": "[2]; A. baumannii 053", "value": "≤0.5", "unit": "microgram/mL"}, {"measurement": "MIC in 1:1 combination with rifampicin, A. baumannii 056", "setting": "[2]; A. baumannii 056", "value": "≤0.5", "unit": "microgram/mL"}, {"measurement": "HK-2 rel to PMB", "setting": "[3]", "value": 1}, {"measurement": "Mean log10 CFU reduction vs. control", "setting": "[4]; 8.6 mg/kg/dose free base", "value": 1.46, "unit": "log10 CFU"}, {"measurement": "Mean log10 CFU reduction vs. control", "setting": "[4]; 17.2 mg/kg/dose free base", "value": 2.87, "unit": "log10 CFU"}, {"measurement": "MIC", "setting": "[5]; K. pneumoniae ATCC 4352", "value": 0.25, "unit": "µg/mL"}, {"measurement": "MIC, K. pneumoniae ATCC 4352", "setting": "[5]; K. pneumoniae ATCC 4352, absence of a second agent, Table 6B", "value": 0.25, "unit": "micrograms/mL"}, {"measurement": "MIC", "setting": "[5]; K. pneumoniae ATCC BAA-2146", "value": 0.5, "unit": "µg/mL"}, {"measurement": "MIC, K. pneumoniae ATCC BAA-2146", "setting": "[5]; K. pneumoniae ATCC BAA-2146, absence of a second agent, Table 6B", "value": 0.5, "unit": "micrograms/mL"}, {"measurement": "MIC, K. pneumoniae ATCC 4352", "setting": "[5]; strain ATCC 4352, compound alone", "value": 0.25, "unit": "micrograms/mL"}, {"measurement": "MIC, K. pneumoniae ATCC BAA-2146", "setting": "[5]; strain ATCC BAA-2146, compound alone", "value": 0.5, "unit": "micrograms/mL"}, {"measurement": "Mean log10 CFU reduction vs. control", "setting": "[6]", "value": 4.32, "unit": "log10 CFU"}]}
